Molecules are shown by their SMILES. pIC50: −log10 of the molar value.

In this experiment the target is T1, human TLR7 (Homo sapiens, UniProt Q9NYK1).
T1 construct: host or cells: HEK293 (HEK-Blue hTLR7)
T1 sequence (Q9NYK1 27-1049): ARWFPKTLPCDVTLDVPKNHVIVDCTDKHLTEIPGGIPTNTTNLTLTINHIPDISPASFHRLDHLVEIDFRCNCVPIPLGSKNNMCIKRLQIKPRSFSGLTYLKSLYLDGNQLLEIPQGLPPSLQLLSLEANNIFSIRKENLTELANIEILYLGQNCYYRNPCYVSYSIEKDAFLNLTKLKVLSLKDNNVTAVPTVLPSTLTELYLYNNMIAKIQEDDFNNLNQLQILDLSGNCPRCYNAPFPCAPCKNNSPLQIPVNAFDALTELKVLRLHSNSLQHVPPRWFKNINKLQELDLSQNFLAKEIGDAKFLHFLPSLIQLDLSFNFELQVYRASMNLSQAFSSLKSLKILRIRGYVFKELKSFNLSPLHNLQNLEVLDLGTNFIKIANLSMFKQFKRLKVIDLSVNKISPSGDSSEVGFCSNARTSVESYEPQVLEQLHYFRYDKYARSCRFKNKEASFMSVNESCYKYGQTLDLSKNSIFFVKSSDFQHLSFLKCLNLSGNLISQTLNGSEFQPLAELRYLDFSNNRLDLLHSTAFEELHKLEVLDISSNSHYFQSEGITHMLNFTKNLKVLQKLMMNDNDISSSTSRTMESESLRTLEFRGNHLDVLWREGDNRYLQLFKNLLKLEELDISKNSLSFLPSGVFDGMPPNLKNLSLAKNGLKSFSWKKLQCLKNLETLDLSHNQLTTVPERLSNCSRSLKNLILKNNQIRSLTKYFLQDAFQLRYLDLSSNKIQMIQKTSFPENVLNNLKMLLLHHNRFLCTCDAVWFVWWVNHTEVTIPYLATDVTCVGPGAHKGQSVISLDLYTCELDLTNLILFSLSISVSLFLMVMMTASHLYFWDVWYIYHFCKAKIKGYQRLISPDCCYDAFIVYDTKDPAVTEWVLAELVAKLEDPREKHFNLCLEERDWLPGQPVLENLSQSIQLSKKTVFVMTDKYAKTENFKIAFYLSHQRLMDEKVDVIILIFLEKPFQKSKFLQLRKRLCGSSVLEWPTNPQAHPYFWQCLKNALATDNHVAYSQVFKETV
The experiment in a line: HEK293-Blue-hTLR-7 cells assay. It counts as cell-based. The note with it: HEK293-Blue-hTLR7 cells, R848 stimulation, 20 hrs, SEAP reporter; read-out: HEK/hTLR7 IC50. The source says:
A stable HEK293-Blue-hTLR-7 cell line was purchased from InvivoGen (Cat.#: hkb-htlr7, San Diego, California, USA). These cells were originally designed for studying the stimulation of human TLR7 by monitoring the activation of NF-κB. A SEAP (secreted embryonic alkaline phosphatase) reporter gene was placed under the control of the IFN-β minimal promoter fused to five NF-κB and AP-1-binding sites. The SEAP was induced by activating NF-κB and AP-1 via stimulating HEK-Blue hTLR7 cells with TLR7 ligands. Therefore the reporter expression was declined by TLR7 antagonist under the stimulation of a ligand, such as R848 (Resiquimod), for incubation of 20 hrs. The cell culture supernatant SEAP reporter activity was determined using QUANTI-Blue™ kit (Cat.#: rep-qb1, Invivogen, San Diego, Ca, USA) at a wavelength of 640 nm, a detection medium that turns purple or blue in the presence of alkaline phosphatase.
HEK293-Blue-hTLR7 cells were incubated at a density of 250,000~450,000 cells/mL in a volume of 170 µL in a 96-well plate in Dulbecco’s Modified Eagle’s medium (DMEM) containing 4.5 g/L glucose, 50 U/mL penicillin, […], […], 2 mM L-glutamine, 10% (v/v) heat-inactivated fetal bovine serum with addition of 20 µL test compound in a serial dilution in the presence of final DMSO at 1% and 10 µL of 20uM R848 in above DMEM, perform incubation under 37° C. in a CO2 incubator for 20 hrs. Then 20 µL of the supernatant from each well was incubated with 180 µL Quanti-blue substrate solution at 37° C. for 2 hrs and the absorbance was read at 620 \~655 nm using a spectrophotometer. The signaling pathway that TLR7 activation leads to downstream NF-κB activation has been widely accepted, and therefore similar reporter assay was modified for evaluating TLR7 antagonist.
With `Cc1cc(-c2ccc(N3CCC(N4CCNCC4)CC3)nc2C(C)C)cn(C)c1=O` [Example 18, 5-[2-isopropyl-6-(4-piperazin-1-yl-1-piperidyl)-3-pyridyl]-1,3-dimethyl-pyridin-2-one], the pIC50 was 8.30.

For `Cc1cc(-c2ccc(N3CCN(Cc4ccc(N5CCNCC5)cc4)CC3)nc2C(C)C)cn(C)c1=O` [Example 13, 5-[2-isopropyl-6-[4-[(4-piperazin-1-ylphenyl)methyl]piperazin-1-yl]-3-pyridyl]-1,3-dimethyl-pyridin-2-one], the pIC50 was 7.92.

As for `CCc1nc(N2CCN(Cc3cnc(N4CCOC[C@@H](N)C4)nc3)CC2)ccc1-c1cc(C)c(=O)n(C)c1` [Example 4, 5-[6-[4-[[2-[(6S)-6-amino-1,4-oxazepan-4-yl]pyrimidin-5-yl]methyl]piperazin-1-yl]-2-ethyl-3-pyridyl]-1,3-dimethyl-pyridin-2-one], the pIC50 was 7.62.

On to `Cc1cc(-c2ccc(N3CCN(Cc4cnc(N5CCNCC5)cn4)CC3)nc2C(C)C)cn(C)c1=O` [Example 8, 5-[2-isopropyl-6-[4-[(5-piperazin-1-ylpyrazin-2-yl)methyl]piperazin-1-yl]-3-pyridyl]-1,3-dimethyl-pyridin-2-one], for which the pIC50 is 8.30.

As for `Cc1cc(-c2ccc(N3CCN(Cc4ncc(N5CCNCC5)cn4)CC3)nc2C(C)C)cn(C)c1=O` [Example 12, 5-[2-isopropyl-6-[4-[(5-piperazin-1-ylpyrimidin-2-yl)methyl]piperazin-1-yl]-3-pyridyl]-1,3-dimethyl-pyridin-2-one], the pIC50 was 8.10.

With `Cc1cc(-c2ccc(N3CCN(Cc4ccc(N5CCNCC5)nc4)CC3)nc2C(C)C)cn(C)c1=O` [Example 11, 5-[2-isopropyl-6-[4-[(6-piperazin-1-yl-3-pyridyl)methyl]piperazin-1-yl]-3-pyridyl]-1,3-dimethyl-pyridin-2-one], the pIC50 is 8.10.

Consider `CCc1nc(N2CCN(Cc3ccc(N4CC5(CNCCO5)C4)nc3)CC2)ccc1-c1cc(C)c(=O)n(C)c1` [Example 2, 5-[2-ethyl-6-[4-[[6-(5-oxa-2,8-diazaspiro[3.5]nonan-2-yl)-3 pyridyl]methyl]piperazin-1-yl]-3-pyridyl]-1,3-dimethyl-pyridin-2-one], for which the pIC50 is 8.00.

As to `CCc1nc(N2CCN3CCN(c4cnc(N5CC6(CNCCO6)C5)nc4)CC3C2)ccc1-c1cc(C)c(=O)n(C)c1` (stereo not shown) [Example 19, 5-[2-ethyl-6-[2-[2-(5-oxa-2,8-diazaspiro[3.5]nonan-2-yl)pyrimidin-5-yl]-3,4,6,7,9,9a-hexahydro-1H-pyrazino[1,2-a]pyrazin-8-yl]-3-pyridyl]-1,3-dimethyl-pyridin-2-one], the pIC50 was 8.52.

In the case of `Cc1cc(-c2ccc(N3CCN(Cc4cnc(N5CC6(CNCCO6)C5)nc4)CC3)nc2C(C)C)cn(C)c1=O` [Example 6, 5-[2-isopropyl-6-[4-[[2-(5-oxa-2,8-diazaspiro[3.5]nonan-2-yl)pyrimidin-5-yl]methyl]piperazin-1-yl]-3-pyridyl]-1,3-dimethyl-pyridin-2-one], the pIC50 was 8.30.

As to `Cc1cc(-c2ccc(N3CCN(Cc4ccc(N5CCNCC5)cn4)CC3)nc2C(C)C)cn(C)c1=O` [Example 7, 5-[2-isopropyl-6-[4-[(5-piperazin-1-yl-2-pyridyl)methyl]piperazin-1-yl]-3-pyridyl]-1,3-dimethyl-pyridin-2-one], the pIC50 was 8.30.

Consider `Cc1cc(-c2ccc(N3CCN(Cc4cnc(N5CC(C)(N)C5)nc4)CC3)nc2C(C)C)cn(C)c1=O` [Example 10, 5-[6-[4-[[2-(3-amino-3-methyl-azetidin-1-yl)pyrimidin-5-yl]methyl]piperazin-1-yl]-2-isopropyl-3-pyridyl]-1,3-dimethyl-pyridin-2-one], for which the pIC50 was 8.15.

As to `CCc1nc(N2CCN(Cc3cnc(N4CC5(CNCCO5)C4)nc3)CC2)ccc1-c1cc(C)c(=O)n(C)c1` [Example 1, 5-[2-ethyl-6-[4-[[2-(5-oxa-2,8-diazaspiro[3.5]nonan-2-yl)pyrimidin-5-yl]methyl]piperazin-1-yl]-3-pyridyl]-1,3-dimethyl-pyridin-2-one], the pIC50 is 8.05.

Regarding `Cc1cc(-c2ccc(N3CCN(Cc4ccc(N5CCNCC5)cc4)CC3)nc2C(F)F)cn(C)c1=O` [Example 17, 5-[2-(difluoromethyl)-6-[4-[(4-piperazin-1-ylphenyl)methyl]piperazin-1-yl]-3-pyridyl]-1,3-dimethyl-pyridin-2-one], the pIC50 is 7.48.

Take `Cc1cc(-c2ccc(N3CCN4CCN(c5ccc(N6CCNCC6)nc5)CC4C3)nc2C(C)C)cn(C)c1=O` (stereo not shown) [Example 16, 5-[2-isopropyl-6-[8-(6-piperazin-1-yl-3-pyridyl)-3,4,6,7,9,9a-hexahydro-1H-pyrazino[1,2-a]pyrazin-2-yl]-3-pyridyl]-1,3-dimethyl-pyridin-2-one]: the pIC50 was 8.70.

For `CCc1nc(N2CCN(Cc3cnc(N4CC(C)(N)C4)nc3)CC2)ccc1-c1cc(C)c(=O)n(C)c1` [Example 3, 5-[6-[4-[[2-(3-amino-3-methyl-azetidin-1-yl)pyrimidin-5-yl]methyl]piperazin-1-yl]-2-ethyl-3-pyridyl]-1,3-dimethyl-pyridin-2-one], the pIC50 is 7.85.

Turning to `CCc1nc(N2CCN(Cc3ccc(N4CCNCC4)cc3)CC2)ccc1-c1cc(C)c(=O)n(C)c1` [Example 5, 5-[2-ethyl-6-[4-[(4-piperazin-1-ylphenyl)methyl]piperazin-1-yl]-3-pyridyl]-1,3-dimethyl-pyridin-2-one], the pIC50 is 8.22.

In the case of `Cc1cc(-c2ccc(N3CCN(Cc4cnc(N5CCNCC5)nc4)CC3)nc2C(C)C)cn(C)c1=O` [Example 9, 5-[2-isopropyl-6-[4-[(2-piperazin-1-ylpyrimidin-5-yl)methyl]piperazin-1-yl]-3-pyridyl]-1,3-dimethyl-pyridin-2-one], the pIC50 is 8.15.

For the molecule `Cc1cc(-c2ccc(N3CCN(c4ccc5c(n4)CCNC5)CC3)nc2C(C)C)cn(C)c1=O` [Example 15, 5-[2-isopropyl-6-[4-(5,6,7,8-tetrahydro-1,6-naphthyridin-2-yl)piperazin-1-yl]-3-pyridyl]-1,3-dimethyl-pyridin-2-one], the pIC50 is 8.00.

As to `Cc1cc(-c2ccc(N3CCN(Cc4cccc(N5CCNCC5)c4)CC3)nc2C(C)C)cn(C)c1=O` [Example 14, 5-[2-isopropyl-6-[4-[(3-piperazin-1-ylphenyl)methyl]piperazin-1-yl]-3-pyridyl]-1,3-dimethyl-pyridin-2-one], the pIC50 was 7.74.

For the origin of these results see patent US20230295109A1, “PYRIDINONE COMPOUNDS FOR THE TREATMENT OF AUTOIMMUNE DISEASE” (F. Hoffmann-La Roche AG, priority 2020, published 2023).
